# Experimental data taken from the supplement of paper PMC11208160.
# Experiment: recombinant UMI read abundance after kanamycin selection (control-corrected) (log10(CPM+1)); higher = more efficient recombination; extreme values may be limits of the assay; sequences stand for … in AGTGCAGAGAAAATCGGCCAGTTTTCTCTGCCTGCAGTCCGCATGCCGTGGGACCCCTTGGGTTCTAACCTGTTGCCTAGATTTATGCAGCGGACTGCCTTTCTCCCAAAGTGATAAACCGG…AGGTTGGTTTCACT; site = the 11-nt donor
# How it was run: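 The measure is log10(CPM+1) for recombinant UMIs. These were PCR-amplified across the donor–target junction and sequenced after Escherichia coli carrying a donor and donor-binding-loop pair library and a target plasmid with T7-inducible IS621 bridge recombinase was plated on IPTG (0.07 mM) plus kanamycin or unselected. CPM were averaged over two replicates and scaled by control-derived factors.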
# 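Further: IS621 bridge recombinase in Escherichia coli cells against a fixed T5 target plasmid.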
row,Sequence,recombinant UMI read abundance (log10)
1,GACAAACCATGGACCGGTTTTCCCGGTAATCCGTATTTGGT (site GACATACCTAC),0
2,GACAAACCATGGACCGGTTTTCCCGGTAATCCGTATTTGGT (site GACCAACCTAC),0.00428
3,GACAAACCATGGACCGGTTTTCCCGGTAATCCGTATTTGGT (site GACGAACCTAC),0
4,GACAAACCATGGACCGGTTTTCCCGGTAATCCGTATTTGGT (site GACTAACCTAC),0
5,GACAAACCATGGACCGGTTTTCCCGGTAATCCGTATTTGGT (site GAGAAACCTAC),0
6,GACAAACCATGGACCGGTTTTCCCGGTAATCCGTATTTGGT (site GATAAACCTAC),0
7,GACAAACCATGGACCGGTTTTCCCGGTAATCCGTATTTGGT (site GCCAAACCTAC),0
8,GACAAACCATGGACCGGTTTTCCCGGTAATCCGTATTTGGT (site GGCAAACCTAC),0
9,GACAAACCATGGACCGGTTTTCCCGGTAATCCGTATTTGGT (site GTCAAACCTAC),0
10,GACAAACCATGGACCGGTTTTCCCGGTAATCCGTATTTGGT (site TACAAACCTAC),0
11,GACAACCCATGGACCGGTTTTCCCGGTAATCCGTATTTGCT (site GACAACCCTAG),0.00684
12,GACAACCCATGGACCGGTTTTCCCGGTAATCCGTATTTGGT (site GACAAACCTAC),0
13,GACAACCCATGGACCGGTTTTCCCGGTAATCCGTATTTGGT (site GACAACCCTAC),0
14,GACAACCCATGGACCGGTTTTCCCGGTAATCCGTATTTGGT (site GACAAGCCTAC),0.00882
15,GACAACCCATGGACCGGTTTTCCCGGTAATCCGTATTTGGT (site GACAATCCTAC),0
16,GACAAGCCATGGACCGGTTTTCCCGGTAATCCGTATTTGGT (site GACAAACCTAC),0
17,GACAAGCCATGGACCGGTTTTCCCGGTAATCCGTATTTGGT (site GACAACCCTAC),0.00727
18,GACAAGCCATGGACCGGTTTTCCCGGTAATCCGTATTTGGT (site GACAAGCCTAC),0
19,GACAAGCCATGGACCGGTTTTCCCGGTAATCCGTATTTGGT (site GACAATCCTAC),0

row,Sequence,recombinant UMI read abundance (log10)
1,GACAATTCATGGACCGGTTTTCCCGGTAATCCGTATTTGAC (site GACAATTCTGT),0
2,GACACATCATGGACCGGTTTTCCCGGTAATCCGTATTTGGT (site GACACATCTAC),2.25
3,GACATACCATGGACCGGTTTTCCCGGTAATCCGTATTTGGT (site GACAAACCTAC),0
4,GACATACCATGGACCGGTTTTCCCGGTAATCCGTATTTGGT (site GACACACCTAC),0.01
5,GACATACCATGGACCGGTTTTCCCGGTAATCCGTATTTGGT (site GACAGACCTAC),0
6,GACATACCATGGACCGGTTTTCCCGGTAATCCGTATTTGGT (site GACATACCTAC),0.0102
7,GACCCGCCATGGACCGGTTTTCCCGGTAATCCGTATTTGAG (site GACCCGCCTCT),0.0157
8,GACCCGCCATGGACCGGTTTTCCCGGTAATCCGTATTTGTG (site GACCCGCCTCA),0.0171
9,GACCCGTCATGGACCGGTTTTCCCGGTAATCCGTATTTGTG (site GACCCGTCTCA),1.63
10,GACCGAGCATGGACCGGTTTTCCCGGTAATCCGTATTTGTA (site GACCGAGCTTA),1.19
11,GACCTAGCATGGACCGGTTTTCCCGGTAATCCGTATTTGAA (site GACCTAGCTTT),0.349
12,GACCTCACATGGACCGGTTTTCCCGGTAATCCGTATTTGAT (site GAACTCACTAT),0.0127
13,GACCTCACATGGACCGGTTTTCCCGGTAATCCGTATTTGAT (site GACCTCACTAT),0.626
14,GACCTCACATGGACCGGTTTTCCCGGTAATCCGTATTTGAT (site GAGCTCACTAT),0
15,GACCTCACATGGACCGGTTTTCCCGGTAATCCGTATTTGAT (site GATCTCACTAT),0.00913
16,GACCTCCCATGGACCGGTTTTCCCGGTAATCCGTATTTGTG (site GACCTCCCTCA),0.00533
17,GACGACGCATGGACCGGTTTTCCCGGTAATCCGTATTTGGA (site GACGACGCTTC),2.48
18,GACGTAACATGGACCGGTTTTCCCGGTAATCCGTATTTGTA (site GACGTAACTTA),2.19
19,GACTAGTCATGGACCGGTTTTCCCGGTAATCCGTATTTGTG (site GACTAGTCTCA),1.64

row,Sequence,recombinant UMI read abundance (log10)
1,GACTCTTCATGGACCGGTTTTCCCGGTAATCCGTATTTGGC (site GACTCTTCTGC),1.04
2,GACTGGACATGGACCGGTTTTCCCGGTAATCCGTATTTGGT (site GACTGGACTAC),0.826
3,GACTTTGCATGGACCGGTTTTCCCGGTAATCCGTATTTGCA (site GACTTTGCTTG),0
4,GAGATCACATGGACCGGTTTTCCCGGTAATCCGTATTTGAT (site GAGATCACTAT),2.13
5,GAGATCACATGGACCGGTTTTCCCGGTAATCCGTATTTGAT (site GAGCTCACTAT),0.00919
6,GAGATCACATGGACCGGTTTTCCCGGTAATCCGTATTTGAT (site GAGGTCACTAT),0.0122
7,GAGATCACATGGACCGGTTTTCCCGGTAATCCGTATTTGAT (site GAGTTCACTAT),0.113
8,GAGCAAGCATGGACCGGTTTTCCCGGTAATCCGTATTTGCA (site GAGCAAGCTTG),2.68
9,GAGCAGACATGGACCGGTTTTCCCGGTAATCCGTATTTGTG (site GAGCAGACTCA),1.25
10,GAGCCCACATGGACCGGTTTTCCCGGTAATCCGTATTTGAT (site GAGCACACTAT),0
11,GAGCCCACATGGACCGGTTTTCCCGGTAATCCGTATTTGAT (site GAGCCCACTAT),1.66
12,GAGCCCACATGGACCGGTTTTCCCGGTAATCCGTATTTGAT (site GAGCGCACTAT),0.0147
13,GAGCCCACATGGACCGGTTTTCCCGGTAATCCGTATTTGAT (site GAGCTCACTAT),0.00621
14,GAGCGCGCATGGACCGGTTTTCCCGGTAATCCGTATTTGCG (site GAGCGCGCTCG),1.56
15,GAGCTCACATGGACCGGTTTTCCCGGTAATCCGTATTTGGT (site GAGCTCACTAA),0.274
16,GAGCTCACATGGACCGGTTTTCCCGGTAATCCGTATTTGGT (site GAGCTCACTAC),0.841
17,GAGCTCACATGGACCGGTTTTCCCGGTAATCCGTATTTGGT (site GAGCTCACTAG),1.37
18,GAGCTCACATGGACCGGTTTTCCCGGTAATCCGTATTTGGT (site GAGCTCACTAT),0.971
19,GAGCTCGCATGGACCGGTTTTCCCGGTAATCCGTATTTGAT (site GAGCTCACTAT),1.7
